# Reference: PubChem BioAssay (NCI)
#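 These data come from cells grown in 96-well plates and exposed to compound for 48 hours at five concentrations. At the TGI there is no net growth.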 Where a SMILES comes first, the peptide text is derived from it. The star is where a group is joined. Boc = CC(C)(C)OC(=O)*
# Experiments:
# Test in all cases: NCI-60 cell line screen, 48 h
# [1] = system: M14 melanoma
# [2] = system: SK-MEL-28 melanoma
# [3] = system: SF-268 CNS
# [4] = system: K-562 leukemia
# [5] = system: NCI-H23 lung
# [6] = system: SK-MEL-2 melanoma
# [7] = system: OVCAR-8 ovarian
# [8] = system: LOX IMVI melanoma
# [9] = system: SNB-19 CNS
# [10] = system: MDA-MB-435
# [11] = system: TK-10 renal
# [12] = system: RPMI-8226 leukemia
# [13] = system: HT29 colon
# [14] = system: UACC-257 melanoma
# [15] = system: SK-MEL-5 melanoma
# [16] = system: HOP-62 NSCLC
# [17] = system: A549 NSCLC
# [18] = system: U251 CNS
# [19] = system: UACC-62 melanoma
# [20] = system: SW-620 colon
# [21] = system: UO-31 renal
# [22] = system: MOLT-4 leukemia
# [23] = system: ACHN renal
# [24] = system: SNB-75 CNS
# [25] = system: OVCAR-3 ovarian
# [26] = system: HL-60(TB) leukemia
# [27] = system: CCRF-CEM leukemia
# [28] = system: NCI-H522 lung
# [29] = system: MALME-3M melanoma
# [30] = system: MDA-MB-231 breast
# [31] = system: MCF7 breast
# [32] = system: NCI-H460 lung
# [33] = system: PC-3 prostate
# [34] = system: IGROV1 ovarian
# [35] = system: 786-0 renal
# [36] = system: DU-145 prostate
# [37] = system: OVCAR-4 ovarian
# [38] = system: HCC-2998 colon
# [39] = system: A498 renal
# [40] = system: MDA-N
# [41] = system: T-47D breast
# [42] = system: BT-549 breast
# [43] = system: SN12C renal
# [44] = system: OVCAR-5 ovarian
# [45] = system: NCI-H226 lung
# [46] = system: HCT-116 colon
# [47] = system: SR leukemia
# [48] = system: HCT-15 colon
# [49] = system: COLO 205 colon
# [50] = system: SF-295 CNS
# [51] = system: KM12 colon
# [52] = system: CAKI-1 renal
# [53] = system: EKVX NSCLC
# [54] = system: SK-OV-3 ovarian
# [55] = system: SF-539 CNS
# [56] = system: HOP-92 NSCLC
# [57] = system: HS 578T breast
smiles,measurement,setting,value
CC(C)(C)OC(=O)NC(Cc1ccc(O)cc1)C(=O)NC(CCCCN)C(=O)O (stereo not drawn) (Boc-Tyr-Lys-OH; configuration not given here),TGI,[1],56 µM
same,TGI,[2],56.1 µM
same,TGI,[3],> 100 µM
same,TGI,[4],> 100 µM
same,TGI,[5],48.6 µM
same,TGI,[6],35.1 µM
same,TGI,[7],> 100 µM
same,TGI,[8],28.2 µM
same,TGI,[9],53.2 µM
same,TGI,[10],> 100 µM
same,TGI,[11],> 100 µM
same,TGI,[12],84.5 µM
same,TGI,[13],> 100 µM
same,TGI,[14],83.5 µM
same,TGI,[15],> 100 µM
same,TGI,[16],39 µM
same,TGI,[17],> 100 µM
same,TGI,[18],43.5 µM
same,TGI,[19],31.5 µM
same,TGI,[20],> 100 µM
same,TGI,[21],54 µM
same,TGI,[22],94.7 µM
same,TGI,[23],65.1 µM
same,TGI,[24],77 µM
same,TGI,[25],66.3 µM
same,TGI,[26],52.8 µM
same,TGI,[27],92.7 µM
same,TGI,[28],26.5 µM
same,TGI,[29],76.6 µM
same,TGI,[30],61.8 µM
same,TGI,[31],> 100 µM
same,TGI,[32],66.2 µM
same,TGI,[33],> 100 µM
same,TGI,[34],37.1 µM
same,TGI,[35],> 100 µM
same,TGI,[36],80.3 µM
same,TGI,[37],48.1 µM
same,TGI,[38],65.3 µM
same,TGI,[39],92.4 µM
same,TGI,[40],> 100 µM
same,TGI,[41],53.1 µM
same,TGI,[42],80.5 µM
same,TGI,[43],42.3 µM
same,TGI,[44],84.9 µM
same,TGI,[45],> 100 µM
same,TGI,[46],40.9 µM
same,TGI,[47],77.3 µM
O=c1cc(-c2ccccc2)oc2cc(Oc3nnnn3-c3ccccc3)ccc12,TGI,[48],> 100 µM
same,TGI,[49],> 100 µM
same,TGI,[1],> 100 µM
same,TGI,[2],> 100 µM
same,TGI,[3],52.2 µM
same,TGI,[50],> 100 µM
same,TGI,[4],> 100 µM
same,TGI,[5],> 100 µM
same,TGI,[6],97.3 µM
same,TGI,[7],> 100 µM
same,TGI,[51],> 100 µM
same,TGI,[8],> 100 µM
same,TGI,[52],20.4 µM
same,TGI,[9],> 100 µM
same,TGI,[53],> 100 µM
same,TGI,[10],46 µM
same,TGI,[11],> 100 µM
same,TGI,[12],> 100 µM
same,TGI,[13],> 100 µM
same,TGI,[14],90.9 µM
same,TGI,[15],42.4 µM
same,TGI,[16],> 100 µM
same,TGI,[17],> 100 µM
same,TGI,[18],41.4 µM
same,TGI,[19],> 100 µM
same,TGI,[20],> 100 µM
same,TGI,[21],33.1 µM
same,TGI,[54],> 100 µM
same,TGI,[55],85.4 µM
same,TGI,[56],9.17 µM
same,TGI,[22],> 100 µM
same,TGI,[23],13.9 µM
same,TGI,[57],89.5 µM
same,TGI,[25],> 100 µM
same,TGI,[26],> 100 µM
same,TGI,[27],> 100 µM
same,TGI,[28],> 100 µM
same,TGI,[29],> 100 µM
same,TGI,[30],> 100 µM
same,TGI,[31],37.8 µM
same,TGI,[32],> 100 µM
same,TGI,[33],> 100 µM
same,TGI,[34],> 100 µM
same,TGI,[35],> 100 µM
same,TGI,[36],94.1 µM
same,TGI,[37],70.9 µM
same,TGI,[38],> 100 µM
same,TGI,[39],79.6 µM
same,TGI,[40],> 100 µM
same,TGI,[41],79.7 µM
same,TGI,[42],52.1 µM
same,TGI,[43],> 100 µM
same,TGI,[45],> 100 µM
same,TGI,[46],> 100 µM
same,TGI,[47],> 100 µM
